According to patent publication US6355811B1, “Polyoxypropylenepolyethylene vitamin E and preparation thereof” (priority 1998, dated 2002):

Assays:
[1] = Anti-oxidation activity: peroxide value of linoleic acid with added sample; conditions: sample 0.5% in linoleic acid, stored at 40° C.
Method: An examination was made of the anti-oxidation activity of the polyoxypropylenepolyoxyethylene vitamin E, using linoleic acid. The linoleic acid used was a reagent purchased from Sigma, U.S.A., comprising linoleic acid 75% and linolenic acid 12.5%.
The polyoxypropylenepolyoxyethylene vitamin E(1) prepared in Example I was added at an amount of 0.5% in the linoleic acid while vitamin E, vitamin E acetate, polyoxyethylene (12EO) vitamin E, polyoxyethylene (20EO) sorbitan monostearate (TWEEN-60), and polyoxyethylene (12EO) nonylphenylether (Igepal-CO880) were also used as references. These samples were stored in an incubator maintained at 40° C. At two days and ten days after the incubation, a peroxide value was determined for each sample. In detail, in a 250 ml Erlenmeyer flask was placed 1.0 g of each of the samples, and 10 ml of chloroform were added to dissolve the sample, after which 15 ml of glacial acetic acid and 1 ml of saturated potassium iodide solution were added and a stopper was put in the flask. After being vigorously shaken, the flask was allowed to stand in a dark place for 5 min. Thereafter, the flask was added with 75 ml of distilled water and vigorously shaken. Free iodine was titrated with a 0.01 N sodium thiosulfate solution, using a starch solution as an indicator. The point at which the solution became colorless was regarded as the end point. The peroxide value was calculated as follows: [formula]
S: Amount of 0.01 N sodium thiosulfate solution consumed by sample (ml)
B: Amount of 0.01 N sodium thiosulfate solution consumed in blank test tube (ml)
F: Factor of 0.01 N sodium thiosulfate solution

rabbits = test: Primary eye irritation test according to Draize; assay type: in vivo
Method: In order to evaluate the safety of the novel polyoxypropylenepolyoxyethylene vitamin E, a primary eye irritation test was conducted on rabbits as taught by Draize. The polyoxypropylenepolyoxyethylene vitamin E (5) prepared in Example V, polyoxyethylene (12EO) nonylphenylether and polyoxyethylene (20EO) sorbitan monostearate each was diluted with a 10% aqueous glycerine solution to give a 10% sample solution. This test sample was dropped onto one eye of each of 6 rabbits weighing 2-3 kg while the other eye was used as a control. 24 hours later, the average scores were recorded according to the Draize scoring for ocular lesions. If lesions were present, the time was extended; otherwise, observation was ceased.

human body = test: Patch test, Finn Chamber method; assay type: in vivo; conditions: human brachium, ICDRG standard
Method: In order to confirm non-toxicity of the polyoxypropylenepolyoxyethylene vitamin E according to the present invention, a patch test was conducted on the human body according to the Finn Chamber method. The subjects of this test were all females 15-35 years old. A sample material was dropped onto the brachium of each of the subjects and a dermicel tape was bonded thereto. The skin irritations were evaluated as a response rate (%) according to an International Contact Dermatitis Research Group (ICDRG) standard after 24 or 48 hour.

[2] = Foaming ability and foam stability, dynamic foam test; assay type: physicochemical; conditions: 20° C.; for Foam Stability: 0.1% solution in water, foam at three minutes after stirring; for Foaming Ability: 0.1% solution in water, 1,000 rpm, 1 min
Method: The foaming ability and foam stability were determined according to a dynamic foam test. First, in a 2 L scaled cylinder with an inner diameter of 10 cm were charged 40 ml of a 0.1% solution of each sample in water and the solution was stirred at 1,000 rpm 20° C. for 1 min with an agimixer. The height of the foam layer thus formed was regarded as foaming ability while the ratio of the volume of the foam layer formed immediately after the stirring to the same maintained at three minutes after the stirring, was denoted as foam stability.

[3] = Surface tension by the du Nuoy method; assay type: physicochemical; conditions: 0.1% aqueous solution, 20° C.
Method: At 20° C., 0.1% solutions of samples in water were measured for surface tension according to the du Nuoy method with the aid of a surface tension balance manufactured by Fisher Scientific.

| Compound | Peroxide Values After 2 days [1] | Peroxide Values After 10 days [1] | Eye irritation, Avg. Values (Draize scoring for ocular lesions) (rabbits; rabbit, in vivo) | Response Rate, 24 h (human body) [%] | Response Rate, 48 h (human body) [%] | Foam Stability [2] [%] | Foaming Ability [2] [cc] | Surface Tension [3] [dyne/cm] | Eye irritation, Avg. Values (Draize scoring for ocular lesions) (rabbits; 10% sample solution in 10% aqueous glycerine, rabbit eye, 24 hours) |
| --- | --- | --- | --- | --- | --- | --- | --- | --- | --- |
| CC(=O)Oc1c(C)c(C)c2c(c1C)CCC(C)(CCC[C@H](C)CCC[C@H](C)CCCC(C)C)O2 (stereo partly shown) [Acetate of vitamin E, vitamin E acetate] | 27.2 | 123.3 | – | – | – | – | – | – | – |
| polyoxyethylene (12EO) nonylphenylether [12EO nonylphenylether] | 28.9 | 178.5 | 0.35 | 2.4 | 2.0 | – | – | – | – |
| polyoxyethylene (12EO) vitamin E [12EO vitamin E] | 26.0 | 124.6 | 0.19 | 1.6 | 0.8 | 46.5 | 125 | 56.3 | – |
| polyoxyethylene (20EO) sorbitan monostearate [20EO sorbitan mono stearate] | 25.0 | 126.6 | – | 0.6 | 0.0 | – | – | – | 0.16 |
| polyoxyethylene (24EO) cholesterol [24 EO Cholesterol] | – | – | – | – | – | 89.6 | 246 | 38.4 | – |
| vitamin E | 21.6 | 58.9 | – | – | – | – | – | – | – |
